Assay results from PubChem BioAssay AID248 (DTP/NCI, 2004).
Several values for one entry are separate records, joined by “and”; a condition that tells them apart may be missing. Equal values may be shown once. Inconclusive results and toxic doses are left out. No stated cut-off is given here; in the data, active means T/C of 150% or more; inactive means T/C below 125%.

System: L1210 leukemia ip in BDF1 mice, survival T/C
Test: NCI In Vivo Anticancer Drug Screen. Data for tumor model L1210 Leukemia (intraperitoneal) in B6D2F1 (BDF1) mice
Conditions: endpoint: mean survival time, higher = longer survival
Method in brief: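 Mice bearing the transplanted tumor received compound or vehicle. Survival of the treated group was divided by that of the vehicle-treated control group to give the ratio.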

[1] = dose: 100.0 mg/kg/injection, schedule: Q04DX003 (ip), vehicle: saline with Tween-80
[2] = dose: 200.0 mg/kg/injection, schedule: Q04DX003 (ip), vehicle: saline with Tween-80
[3] = dose: 400.0 mg/kg/injection, schedule: Q04DX003 (ip), vehicle: saline with Tween-80
[4] = dose: 100.0 mg/kg/injection, schedule: Q04DX003 (ip), vehicle: Klucel (hydroxypropylcellulose) (HPC)
[5] = dose: 200.0 mg/kg/injection, schedule: Q04DX003 (ip), vehicle: Klucel (hydroxypropylcellulose) (HPC)
[6] = dose: 400.0 mg/kg/injection, schedule: Q04DX003 (ip), vehicle: Klucel (hydroxypropylcellulose) (HPC)
[7] = dose: 400.0 mg/kg/injection, schedule: Q04DX002 (ip), vehicle: saline with Tween-80
[8] = dose: 100.0 mg/kg/injection, schedule: Q04DX002 (ip), vehicle: saline with Tween-80
[9] = dose: 200.0 mg/kg/injection, schedule: Q04DX002 (ip), vehicle: saline with Tween-80
[10] = dose: 100.0 mg/kg/injection, schedule: Q04DX003 (ip), vehicle: saline
[11] = dose: 200.0 mg/kg/injection, schedule: Q04DX003 (ip), vehicle: saline
[12] = dose: 400.0 mg/kg/injection, schedule: Q04DX003 (ip), vehicle: saline
[13] = dose: 200.0 mg/kg/injection, schedule: Q01DX001 (ip), vehicle: carboxymethylcellulose (CMC)
[14] = dose: 400.0 mg/kg/injection, schedule: Q01DX001 (ip), vehicle: carboxymethylcellulose (CMC)
[15] = dose: 100.0 mg/kg/injection, schedule: Q01DX001 (ip), vehicle: carboxymethylcellulose (CMC)
[16] = dose: 100.0 mg/kg/injection, schedule: Q01DX009 (ip), vehicle: Klucel (hydroxypropylcellulose) (HPC)
[17] = dose: 200.0 mg/kg/injection, schedule: Q01DX009 (ip), vehicle: Klucel (hydroxypropylcellulose) (HPC)
[18] = dose: 400.0 mg/kg/injection, schedule: Q01DX009 (ip), vehicle: Klucel (hydroxypropylcellulose) (HPC)

Measured: T/C

CCCC(Cl)C(=O)Nc1cccc(OC(=O)NC)c1 (stereo unspecified)
inactive: [1] 95 % of control | [2] 93 % of control | [3] 102 % of control

Cc1cc(=O)n2c3c(c4c(cc13)c(CBr)cc(=O)n4C)OC2
inactive: dose: 25.0 mg/kg/injection, schedule: Q01DX009 (ip), vehicle: Klucel (hydroxypropylcellulose) (HPC) 86 % of control | dose: 50.0 mg/kg/injection, schedule: Q01DX009 (ip), vehicle: Klucel (hydroxypropylcellulose) (HPC) 102 % of control | dose: 75.0 mg/kg/injection, schedule: Q01DX009 (ip), vehicle: Klucel (hydroxypropylcellulose) (HPC) 94 % of control and 87 % of control | [4] 103 % of control | [5] 93 % of control | [6] 104 % of control

c1ccc(N(c2ccccc2)[Si](c2ccccc2)(c2ccccc2)c2ccccc2)cc1
inactive: dose: 25.6 mg/kg/injection, schedule: Q04DX002 (ip), vehicle: saline with Tween-80 93 % of control | dose: 64.0 mg/kg/injection, schedule: Q04DX002 (ip), vehicle: saline with Tween-80 93 % of control | dose: 160.0 mg/kg/injection, schedule: Q04DX002 (ip), vehicle: saline with Tween-80 97 % of control | [7] 104 % of control

CN(C)C(C(=O)O)c1ccccc1 (stereo unspecified)
inactive: [8] 101 % of control | [9] 97 % of control | [7] 97 % of control

CC(C)C(C)/C=C/C(C)C1CCC2C3CCC4CC(O)CCC4(C)C3CCC12C (stereo unspecified)
inactive: dose: 100.0 mg/kg/injection, schedule: Q01DX001 (ip), vehicle: Klucel (hydroxypropylcellulose) (HPC) 90 % of control | dose: 200.0 mg/kg/injection, schedule: Q01DX001 (ip), vehicle: Klucel (hydroxypropylcellulose) (HPC) 97 % of control

O=C(C1C2CCC(CC2)C1C(=O)N1CCCCC1)N1CCCCC1 (stereo unspecified)
inactive: [10] 108 % of control | [11] 100 % of control | [12] 100 % of control

NNC(=O)c1ccc(I)cc1
inactive: [8] 118 % of control | [9] 118 % of control | [7] 107 % of control

Nc1nc2c(c(=O)[nH]1)N(Cc1ccccc1)C(CNc1ccc(C(=O)NC(CCC(=O)O)C(=O)O)cc1)CN2 (stereo unspecified)
inactive: dose: 100.0 mg/kg/injection, schedule: Q01DX001 (ip), vehicle: alkali diluted with saline 91 % of control | dose: 200.0 mg/kg/injection, schedule: Q01DX001 (ip), vehicle: alkali diluted with saline 94 % of control | dose: 400.0 mg/kg/injection, schedule: Q01DX001 (ip), vehicle: alkali diluted with saline 100 % of control

O=[N+]([O-])c1ccccc1/C=N/N1CCN(/N=C/c2ccccc2[N+](=O)[O-])CC1
inactive: [13] 89 % of control | [14] 89 % of control

O=C(O)c1ccccc1C(NC(=O)N1C(=O)C=CC1=O)NC(=O)N1C(=O)C=CC1=O
inactive: [15] 97 % of control | [13] 97 % of control | [14] 106 % of control

CCN(CC)C/C=C/C(C)Nc1ccnc2cc(Cl)ccc12 (stereo unspecified)
inactive: dose: 5.0 mg/kg/injection, schedule: Q04DX002 (ip), vehicle: saline with Tween-80 98 % of control | dose: 10.0 mg/kg/injection, schedule: Q04DX002 (ip), vehicle: saline with Tween-80 98 % of control | dose: 20.0 mg/kg/injection, schedule: Q04DX002 (ip), vehicle: saline with Tween-80 94 % of control

Cc1c(Cl)cccc1NC(=O)c1ccc(Cl)cc1Cl
inactive: [16] 92 % of control | [4] 92 % of control | [17] 94 % of control | [5] 95 % of control | [18] 91 % of control | [6] 93 % of control

N/C(=N/N=C/c1ccc(N(CCCl)CCCl)cc1)N[N+](=O)[O-]
inactive: dose: 15.0 mg/kg/injection, schedule: Q01DX Z (ip), vehicle: methylcellulose (MC) 89 % of control | dose: 30.0 mg/kg/injection, schedule: Q01DX Z (ip), vehicle: methylcellulose (MC) 93 % of control | dose: 60.0 mg/kg/injection, schedule: Q01DX Z (ip), vehicle: methylcellulose (MC) 96 % of control | dose: 60.0 mg/kg/injection, schedule: Q01DX Z (oral), vehicle: methylcellulose (MC) 94 % of control | dose: 120.0 mg/kg/injection, schedule: Q01DX Z (ip), vehicle: methylcellulose (MC) 96 % of control | dose: 120.0 mg/kg/injection, schedule: Q01DX Z (oral), vehicle: methylcellulose (MC) 101 % of control | dose: 240.0 mg/kg/injection, schedule: Q01DX Z (ip), vehicle: methylcellulose (MC) 104 % of control | dose: 480.0 mg/kg/injection, schedule: Q01DX Z (ip), vehicle: methylcellulose (MC) 94 % of control

ONC12CCCCC1(Cl)CCCC2 (stereo unspecified)
inactive: dose: 150.0 mg/kg/injection, schedule: Q01DX001 (ip), vehicle: saline 94 % of control

CSCCC(NC(=O)CNC(=O)OCc1ccccc1)C(=O)O (stereo unspecified)
inactive: [1] 106 % of control | [2] 95 % of control | [3] 107 % of control

Oc1ccccc1/C=N\Nc1ccccc1
inactive: [10] 100 % of control | [11] 95 % of control | [12] 103 % of control

CC(=O)c1ccc(C(C)(C)C)cc1
inactive: [15] 105 % of control | [13] 100 % of control | [14] 100 % of control

CCCCCCN(S(=O)(=O)c1ccc([N+](=O)[O-])cc1)S(=O)(=O)c1ccc([N+](=O)[O-])cc1
inactive: [4] 96 % of control | [5] 88 % of control | [6] 88 % of control

Cc1cc(Cl)ccc1NC(=O)Nc1cccc(F)c1
inactive: [16] 88 % of control | [17] 90 % of control | [18] 86 % of control

CCN(CC)CCCN(C)C(=O)C(O)(c1ccccc1)c1ccccc1
inactive: dose: 25.0 mg/kg/injection, schedule: Q01DX001 (ip), vehicle: saline 102 % of control | dose: 50.0 mg/kg/injection, schedule: Q01DX001 (ip), vehicle: saline 97 % of control | dose: 100.0 mg/kg/injection, schedule: Q01DX001 (ip), vehicle: saline 102 % of control

O=[N+]([O-])c1ccc(N/N=C(\Cc2ccccc2)CC(O)(C(F)(F)F)C(F)(F)F)c([N+](=O)[O-])c1
inactive: dose: 25.0 mg/kg/injection, schedule: Q01DX009 (ip), vehicle: gum acacia 92 % of control | dose: 50.0 mg/kg/injection, schedule: Q01DX009 (ip), vehicle: gum acacia 96 % of control | dose: 100.0 mg/kg/injection, schedule: Q01DX001 (ip), vehicle: gum acacia 106 % of control | dose: 100.0 mg/kg/injection, schedule: Q01DX009 (ip), vehicle: gum acacia 98 % of control | dose: 200.0 mg/kg/injection, schedule: Q01DX001 (ip), vehicle: gum acacia 100 % of control | dose: 200.0 mg/kg/injection, schedule: Q01DX009 (ip), vehicle: gum acacia 94 % of control | dose: 400.0 mg/kg/injection, schedule: Q01DX001 (ip), vehicle: gum acacia 98 % of control | dose: 400.0 mg/kg/injection, schedule: Q01DX009 (ip), vehicle: gum acacia 93 % of control
